# How the values were obtained:
# [1] = tested on: T lymphocytes from pmel-1 T cell receptor (TCR) transgenic mice; assay: retention of ^3H-labeled nucleoside analogs in naïve and proliferating primary T cells; format: cell-based, mouse
# Protocol: In order to identify candidates for PET probes that can distinguish between activated T cells and non-activated, naïve T cells, we conducted a radioactive uptake assay, the results of which are shown in FIG. 1. […] These measurements were performed after incubating cells with radioactive compounds for 1 hr and performing successive washes to remove unincorporated probes. […] For example, we identified compounds #1 through #15 (see FIG. 2A for chemical structures) as PET probe candidates useful for detecting activated T cells. FIG. 2A presents substrates of dCK labeled with the ^18F positron emitting radioisotope.
# T lymphocytes from pmel-1 T cell receptor (TCR) transgenic mice were stimulated ex vivo using a melanoma antigen (1 micromolar hgp 10025-33). These cells were then cultured for radioactive uptake and kinase assays that were performed 72 hours post-stimulation. […] The plate was then washed 5 times with media containing 5% fetal calf serum (FCS) by using the Millipore Vacuum Manifold (Billerica, Mass.); the amount of incorporated probe was measured by scintillation counting using the PerkinElmer Microbeta (Waltham, Mass.). […]
# FIG. 1 identifies fluorinated deoxycytidine analogs retained in activated versus naive T lymphocytes and incorporated into DNA. […] Following successive washes, intracellular radioactivity was measured by scintillation counting. […]
# [2] = tested on: NIH3T3 fibroblasts engineered to overexpress nucleoside kinases (dCK) and the nucleoside transporter SLC29A1; assay: [^3H]D-FAC uptake in engineered NIH3T3 fibroblasts; format: cell-based
# [3] = tested on: L1210 murine leukemia cells (dCK^+); assay: radioactive tracer uptake assay, L1210 parental cells; format: cell-based
# Text: (§1) To evaluate whether [^18F]D-FAC PET can determine resistance to gemcitabine and Ara-C, we used a previously described experimental model based on the L1210 murine leukemia cells and their gemcitabine/Ara-C resistant 10K derivatives^20. The molecular defect responsible for resistance in the L1210 10K cells is loss of dCK expression due to a genetic modification of chromosome 5 in the 3′ region of the dCK gene. The 10K cell line was derived by exposing the parental L1210 cells to increasing concentrations of gemcitabine^20; before experiments, we confirmed that L1210 10K cells lack expression of dCK at the protein level (FIG. 13). Thus, to determine whether D-FAC retention correlates with gemcitabine resistance in these cells, we performed radioactive tracer uptake assays using [^3H]D-FAC with [^3H]-FLT used as a negative control. We observed that the gemcitabine-resistant L1210-10K cell line retained much lower amounts of [^3H]D-FAC in contrast to the gemcitabine-sensitive L1210 parental cell line (FIG. 14A). In fact, [^3H]D-FAC uptake was 40-fold higher in dCK^+ cells compared to cells lacking dCK activity (dCK^+=1288 fmols/1×10^5 cells; dCK-=34 fmols/1×10^5 cells; p<0.001). In contrast, [^3H]FLT uptake was indistinguishable between these cell lines. FIG. 14B presents a [^3H]D-FAC kinase assay with the L1210 cell lines using [^3H]D-FAC as a substrate (1 microgram protein/reaction). In dCK positive cells shown in FIG. 14B, D-FAC phosphorylation was 52-fold higher than in dCK deficient cells (dCK^+=62 fmols; dCK^−=1.2 fmols; p=0.028). Reintroduction of dCK into the L1210-10K cells restored [^18F]D-FAC uptake and phosphorylation (FIG. 14), thus further confirming the critical role of this nucleoside kinase in regulating D-FAC metabolism.
# (§2) Each cell type was incubated separately with each of the following: [^18F]L-FAC, and [^18F]-CA, and the positive control [^18F]D-FAC. The cells were incubated with [^18F]L-FAC, [^18F]-CA, and [^18F]D-FAC for 1 hour. Following successive washes, intracellular radioactivity was measured by scintillation counting to obtain the result shown in FIG. 17A.
# [4] = tested on: L1210-10K cell line (lacking dCK); assay: radioactive tracer uptake assay, L1210-10K cells; format: cell-based, murine
# Text: To evaluate whether [^18F]D-FAC PET can determine resistance to gemcitabine and Ara-C, we used a previously described experimental model based on the L1210 murine leukemia cells and their gemcitabine/Ara-C resistant 10K derivatives^20. The molecular defect responsible for resistance in the L1210 10K cells is loss of dCK expression due to a genetic modification of chromosome 5 in the 3′ region of the dCK gene. The 10K cell line was derived by exposing the parental L1210 cells to increasing concentrations of gemcitabine^20; before experiments, we confirmed that L1210 10K cells lack expression of dCK at the protein level (FIG. 13). Thus, to determine whether D-FAC retention correlates with gemcitabine resistance in these cells, we performed radioactive tracer uptake assays using [^3H]D-FAC with [^3H]-FLT used as a negative control. We observed that the gemcitabine-resistant L1210-10K cell line retained much lower amounts of [^3H]D-FAC in contrast to the gemcitabine-sensitive L1210 parental cell line (FIG. 14A). […]
# Each cell type was incubated separately with each of the following: [^18F]L-FAC, and [^18F]-CA, and the positive control [^18F]D-FAC. […] Following successive washes, intracellular radioactivity was measured by scintillation counting to obtain the result shown in FIG. 17A.
# [5] = biological target: T1, deoxycytidine kinase (dCK) (Mus musculus, UniProt P43346); assay: kinase assay with L1210 cell line lysates; format: biochemical, murine
# T1 construct: endogenous in cells; host or cells: L1210 murine leukemia cells (wild type), whole-cell lysate; L1210-10K (dCK-deficient) as negative control
# Text: as §1, §2
# (§3) Lysates from L1210 wildtype (WT) and dCK deficient (10K) cells were incubated for 20 minutes with [^18F]L-FMAC; phosphorylated products were measured by scintillation counting.
# [6] = tested on: deoxycytidine kinase (dCK); assay: kinase assay with L1210 cell line lysates; format: biochemical, murine; details: dCK^− cells; 1 microgram protein/reaction
# Text: as §1, §2, §3
# [7] = tested on: L1210 wild type or 10K subcutaneous tumors; assay: PET of subcutaneous L1210 wild type and 10K tumors; format: in vivo, SCID mice; details: 4 days after injection
# Protocol: To investigate whether [^18F]D-FAC PET can distinguish gemcitabine-sensitive cancer cells from the resistant cancer cells in vivo, mice were injected with L1210 wild type or 10K cells to establish subcutaneous tumors; mice were scanned with [^18F]FDG PET to confirm that implanted cells were viable and growing in vivo and [^18F]D-FAC PET scans were carried out to compare D-FAC accumulation in gemcitabine sensitive versus resistant cells. […] The mice were injected 4 days prior to imaging.
# Mice were challenged with the MoMSV onco-retrovirus.
# [8] = chromatography of plasma after intravenous injection of probe (deamination); format: in vivo, C57BL/6 mouse; details: plasma 10 and 45 minutes after intravenous injection
# [9] = tested on: pancreatic inflammatory lesions; assay: PET/CT scan of human with chronic pancreatitis; format: in vivo; details: person
# Text: FIG. 30 presents PET/CT scans of a human with chronic pancreatitis. The pancreas head 301 is visible.
# [10] = 60 minutes after intravenous injection
# [11] = chromatography after incubation of probe with human plasma; details: 10 and 45 minutes incubation
# Protocol: FIG. 19 presents chromatographs of [^18F]D-FAC (FIG. 19C) and [^18F]L-FAC (FIG. 19D) in plasma 10 minutes and 45 minutes after the probe was incubated with human plasma.
# T1 sequence (P43346 whole entry): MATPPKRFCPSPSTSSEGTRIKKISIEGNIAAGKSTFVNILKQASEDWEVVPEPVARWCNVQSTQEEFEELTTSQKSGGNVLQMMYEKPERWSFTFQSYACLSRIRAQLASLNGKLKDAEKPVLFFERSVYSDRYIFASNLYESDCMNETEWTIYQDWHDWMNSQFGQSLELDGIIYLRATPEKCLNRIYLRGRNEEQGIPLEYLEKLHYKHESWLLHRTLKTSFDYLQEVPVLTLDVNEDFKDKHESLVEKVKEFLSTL
compound,measurement,setting,value
"Nc1ccn(C2O[C@H](CO)[C@@H](O)[C@@H]2F)c(=O)n1 (stereo partly drawn) [[^3H]D-FAC, 1-(2′-deoxy-2′-fluoro-arabinofuranosyl) cytosine]",incorporation into DNA of proliferating T cells,[1],incorporated in the DNA
same,uptake in cells overexpressing dCK and SLC29A1,[2],increased uptake
same,uptake,[3]; dCK^+ cells,1288 fmols/1×10^5 cells
same,uptake in dCK^+ cells compared to cells lacking dCK activity,[3]; p<0.001,40 fold
same,uptake,[4],34 fmols/1×10^5 cells
same,phosphorylation,"[5]; dCK^+ cells, 1 microgram protein/reaction",62 fmols
same,phosphorylation in dCK positive cells versus dCK deficient cells,[5]; p=0.028,52 fold
same,phosphorylation,[6],1.2 fmols
"Nc1ccn([C@H]2O[C@@H](CO)[C@H](O)[C@H]2[18F])c(=O)n1 [[^18F]L-FAC, 1-(2′-deoxy-2′-[^18F]fluoro-β-L-arabinofuranosyl)cytosine]",dependence of retention and phosphorylation on dCK expression,"[3]; L1210 wild type vs 10K cells, 1 hour incubation",requires dCK expression
same,"retention/visualization in dCK deficient, gemcitabine resistant tumors",[7]; L1210-10K,not visualization
same,"retention/visualization in dCK positive, gemcitabine sensitive tumors",[7]; L1210 WT,allows visualization
same,resistance to deamination in plasma after injection into mice,[8],more resistant to deamination than [^18F]D-FAC
same,accumulation in pancreatic inflammatory lesions,[9],clear accumulation
same,biodistribution compared with [^18F]D-FAC,[10],resembles that of [^18F]D-FAC
same,stability in human plasma,[11],improved stability relative to [^18F]D-FAC
"Nc1ccn([C@@H]2O[C@H](CO)[C@@H](O)C2(F)F)c(=O)n1 [dFdC, 2′,2′-difluorodeoxycytidine, reference compound]",difference in probe retention by proliferating compared to naïve T cells,"[1]; 1 hr incubation, 72 hrs after stimulation",> 20 fold

# Source: US8101740B2, “Positron emission tomography probes for imaging immune activation and selected cancers” (The Regents of the University of California, priority 2007, dated 2012)
